US10076519B2 (CYTOKINETICS, INC., priority 2010, dated 2018)

test system: rabbit skeletal myofibrils (fast skeletal myofibrils); test: Activation of fast skeletal myofibrils (PUMA assay, PK/LDH-coupled ATPase at pCa25); type: biochemical; conditions: AC1.4 determined according to the procedure of Example 39; reported as class symbols
Outline: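 ATPase activity of Triton-washed rabbit skeletal myofibrils, roughly 90% fast fibres, tracked by NADH loss at 340 nm through a PK/LDH-coupled ADP-regenerating system. Calcium set to 25% of maximal activity (pCa25), in PIPES 12 mM pH 6.8 with 2 mM MgCl2 and 1 mM DTT; AC1.4 reported.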

Compound | Mean AC1.4
COC(=O)c1cncc(-c2ccc(NCC(C)(C)c3ccc(F)cc3)nn2)c1 [methyl 5-(6-{[2-(4-fluorophenyl)-2-methylpropyl]amino}pyridazin-3-yl)pyridine-3-carboxylate] | B (B=1-10 uM)
CC(C)(CNc1ccc(-c2cccc(F)c2)nn1)c1ccc(F)cc1 [[2-(4-fluorophenyl)-2-methylpropyl][6-(3-fluorophenyl)pyridazin-3-yl]amine] | A (A=<1 uM)
CC(C)(CNc1ccc(-c2cccc(O)n2)nn1)c1ccc(F)cc1 [6-(6-{[2-(4-fluorophenyl)-2-methylpropyl]amino}pyridazin-3-yl)pyridin-2-ol] | B (B=1-10 uM)
O=C(O)c1cc(-c2ccc(NCC3(c4ncccc4F)CCC3)nn2)ccc1F | B (B=1-10 uM)
Fc1cccnc1C1(CNc2ccc(-c3ccc4[nH]ncc4c3)nn2)CNC1 [(6-(1H-indazol-5-yl)pyridazin-3-yl){[3-(3-fluoro(2-pyridyl))azetidin-3-yl]methyl}amine] | D (D=>20 uM)
CC(C)(CNc1ccc(C(=O)NCC2CCC(=O)N2)nn1)c1ccc(F)cc1 (stereo not drawn) [(6-{[2-(4-fluorophenyl)-2-methylpropyl]amino}pyridazin-3-yl)-N-[(5-oxopyrrolidin-2-yl)methyl]carboxamide] | C (C=10-20 uM)
CC(C)(CNc1ccc(-c2ccc3[nH]c(=O)[nH]c3c2)nn1)c1ccccc1F | A (A=<1 uM)
CC(C)Nc1n[nH]c2ccc(-c3ccc(NCC(C)(C)c4ccc(F)cc4)nn3)cc12 [[2-(4-fluorophenyl)-2-methylpropyl](6-{3-[(methylethyl)amino](1H-indazol-5-yl)}pyridazin-3-yl)amine] | A (A=<1 uM)
NC(=O)c1cccc(-c2ccc(NC3Cc4ccccc4C3)nn2)c1 [3-[6-(indan-2-ylamino)pyridazin-3-yl]benzamide] | D (D=>20 uM)
CC(C)(CNc1ccc(-c2ccc(N)nc2)nn1)c1ccc(F)cc1 [[6-(6-amino(3-pyridyl))pyridazin-3-yl][2-(4-fluorophenyl)-2-methylpropyl]amine] | A (A=<1 uM)
Nc1nc(-c2ccc(NCC3(c4ncccc4F)CCC3)nn2)c[nH]1 [[6-(2-aminoimidazol-4-yl)pyridazin-3-yl]{[(3-fluoro(2-pyridyl))cyclobutyl]methyl}amine] | D (D=>20 uM)
CC(C)(CNc1ccc(C(=O)N[C@H]2CCC[C@H]2C(N)=O)nn1)c1ccc(F)cc1 (stereo in doubt) [(2S,1R)-2-[(6-{[2-(4-fluorophenyl)-2-methylpropyl]amino}pyridazin-3-yl)carbonylamino]cyclopentane-carboxamide] | D (D=>20 uM)
NC(=O)c1cccc(-c2ccc(NCCc3ccc(F)cc3)nn2)c1 | D (D=>20 uM)
CC(C)(CNc1ccc(-c2ccc3[nH]nc(N)c3c2)nn1)c1ccc(C#N)cc1 | A (A=<1 uM)
CC(C)(CNc1ccc(-c2ccc3[nH]nc(NCCN)c3c2)nn1)c1ccc(F)cc1 [(6-{3-[(2-aminoethyl)amino](1H-indazol-5-yl)}pyridazin-3-yl)[2-(4-fluorophenyl)-2-methylpropyl]amine] | A (A=<1 uM)
N#Cc1cccc(C2(CNc3ccc(-c4ccc5[nH]ncc5c4)nn3)CCC2)n1 | B (B=1-10 uM)
CC(C)(CNc1ccc(-c2ccc3[nH]nc(CO)c3c2)nn1)c1ccc(F)cc1 [[5-(6-{[2-(4-fluorophenyl)-2-methylpropyl]amino}pyridazin-3-yl)-1H-indazol-3-yl]methan-1-ol] | A (A=<1 uM)
CC(C)(CNc1ccc(-c2cccc(C(N)=O)c2)nn1)OCc1ccccc1 | D (D=>20 uM)

same assay, conditions: median AC1.4 class, procedure of Example 39

Compound | Mean AC1.4
Nc1ccc2nc(-c3ccc(NCC4(c5ncccc5F)CCC4)nn3)sc2n1 [[6-(5-amino(1,3-thiazolino[5,4-b]pyridin-2-yl))pyridazin-3-yl]{[(3-fluoro(2-pyridyl))cyclobutyl]methyl}amine] | B (B=1-10 uM)
(2S)-2-amino-N-({2-[6-({[(3- fluoro(2- pyridyl))cyclobutyl]methyl}ami- no)pyridazin-3-yl](1,3-thiazol-5- yl)}methyl)-3-hydroxy-3- methylbutanamide | A (A=<1 uM)
NC(=O)c1cccc(-c2ccc(NCC3(c4ncccc4F)CC(F)(F)C3)nn2)c1 | B (B=1-10 uM)
CC(C)(Nc1ccc(-c2ccc(C(N)=O)cc2)nn1)c1ccccc1 [4-{6-[(1-methyl-1-phenylethyl)amino]pyridazin-3-yl}benzamide] | C (C=10-20 uM)
CC(C)(N)C(=O)NCc1cnc(-c2ccc(NCC3(c4ncccc4F)CCC3)nn2)s1 [2-amino-N-({2-[6-({[(3-fluoro(2-pyridyl))cyclobutyl]methyl}ami-no)pyridazin-3-yl](1,3-thiazol-5-yl)}methyl)-2-methylpropanamide] | A (A=<1 uM)
Fc1cccnc1C1(Nc2ccc(-c3ccc4nc[nH]c4c3)nn2)CCC1 [(6-benzimidazol-6-ylpyridazin-3-yl)[(3-fluoro(2-pyridyl))cyclobutyl]amine] | B (B=1-10 uM)
NC(=O)c1ccc(C2(Nc3ccc(-c4cccc(C(N)=O)c4)nn3)CCC2)cc1 | D (D=>20 uM)
Fc1cccnc1C1(CNc2ccc(-c3nccs3)nn2)CCC1 [{[(3-fluoro(2-pyridyl))cyclobutyl]methyl}(6-(1,3-thiazol-2-yl)pyridazin-3-yl)amine] | B (B=1-10 uM)
NC(=O)Nc1ccc(-c2ccc(NCC3(c4ncccc4F)CCC3)nn2)cc1 | A (A=<1 uM)
Fc1cc2[nH]ncc2cc1-c1ccc(NC2(c3ncccc3F)CCC2)nn1 [[6-(6-fluoro(1H-indazol-5-yl))pyridazin-3-yl][(3-fluoro(2-pyridyl))cyclobutyl]amine] | B (B=1-10 uM)
NC(=O)c1ccc(-c2ccc(NCC3(c4ncccc4F)CCC3)nn2)cc1O | B (B=1-10 uM)
CC(C)(Nc1ccc(-c2cc(C(N)=O)ccc2F)nn1)c1ncccc1Cl [3-(6-{[1-(3-chloro(2-pyridyl))-isopropyl]amino}pyridazin-3-yl)-4-fluorobenzamide] | B (B=1-10 uM)
NC(=O)c1nnc(-c2ccc(NCC3(c4ncccc4F)CCC3)nn2)o1 [5-[6-({[(3-fluoro-2-pyridyl)cyclobutyl]methyl}ami-no)pyridazin-3-yl]-1,3,4-oxadiazole-2-carboxamide] | C (C=10-20 uM)
NC(=O)c1ccc2nc(-c3ccc(NCC4(c5ncccc5F)CCC4)nn3)sc2n1 [2-[6-({[(3-fluoro-2-pyridyl)cyclobutyl]methyl}ami-no)pyridazin-3-yl]-1,3-thiazolino[5,4-b]pyridine-5-carboxamide] | D (D=>20 uM)

same assay, conditions: median AC1.4 reported as class; procedure of Example 39

Compound | Mean AC1.4
Fc1cccnc1C1(CNc2ccc(-c3ncc(CN4CCNCC4)s3)nn2)CCC1 [{[(3-fluoro(2-pyridyl))cyclobutyl]methyl}{6-[5-(piperazinylmethyl)(1,3-thiazol-2-yl)]pyridazin-3-yl}amine] | B (B=1-10 uM)
NC(=O)c1csc(NC(=O)c2ccc(NCC3(c4ncccc4F)CCC3)nn2)n1 [2-{[6-({[(3-fluoro-2-pyridyl)cyclobutyl]methyl}ami-no)pyridazin-3-yl]carbonylamino}-1,3-thiazole-4-carboxamide] | A (A=<1 uM)
NC(=O)NC1CCc2nc(-c3ccc(NCC4(c5ncccc5F)CCC4)nn3)sc2C1 (stereo not drawn) [amino-N-{2-[6-({[(3-fluoro(2-pyridyl))cyclobutyl]methyl}ami-no)pyridazin-3-yl](4,5,6,7-tetrahydrobenzothiazol-6-yl)}amide] | D (D=>20 uM)
N#Cc1cccc(-c2ccc(NC[C@]3(c4ncccc4F)C[C@H](F)C3)nn2)c1O [3-[6-({[3-fluoro-1-(3-fluoro(2-pyridyl))cyclobutyl]methyl}ami-no)pyridazin-3-yl]-2-hydroxybenzenecarbonitrile] | B (B=1-10 uM)
CS(=O)(=O)N1CCc2nc(-c3ccc(NCC4(c5ncccc5F)CCC4)nn3)sc2C1 [2-[6-({[(3-fluoro(2-pyridyl))cyclobutyl]methyl}ami-no)pyridazin-3-yl]-5-(methylsulfonyl)-4,5,6,7-tetrahydro-1,3-thiazolo[5,4-c]pyridine] | D (D=>20 uM)
Cc1cc(NCC2(c3ncccc3F)CCC2)nnc1-c1ncc(CO)s1 [{2-[6-({[(3-fluoro(2-pyridyl))cyclobutyl]methyl}amino)-4-methylpyridazin-3-yl]-1,3-thiazol-5-yl}methan-1-ol] | B (B=1-10 uM)
NC(=O)c1cc(Cl)cc(-c2ccc(NC[C@]3(c4ncccc4F)C[C@H](F)C3)nn2)c1 [5-chloro-3-[6-({[3-fluoro-1-(3-fluoro(2-pyridyl))cyclobutyl]methyl}ami-no)pyridazin-3-yl]benzamide] | B (B=1-10 uM)
O=C(N[C@@H]1CCOC1)c1cccc(-c2ccc(NC[C@]3(c4ncccc4F)C[C@H](F)C3)nn2)c1 [N-((3R)oxolan-3-yl){3-[6-({[3-fluoro-1-(3-fluoro(2-pyridyl))cyclobutyl]methyl}ami-no)pyridazin-3-yl]phenyl}carboxamide] | B (B=1-10 uM)
NC(=O)Cc1ccc(F)c(-c2ccc(NCC3(c4ncccc4F)CCC3)nn2)c1 [2-{4-fluoro-3-[6-({[(3-fluoro(2-pyridyl))cyclobutyl]methyl}ami-no)pyridazin-3-yl]phenyl}acetamide] | B (B=1-10 uM)
COc1ncc(-c2ccc(NCC3(c4ncccc4F)CCC3)nn2)cc1C(N)=O [5-[6-({[(3-fluoro(2-pyridyl))cyclobutyl]methyl}ami-no)pyridazin-3-yl]-2-methoxypyridine-3-carboxamide] | C (C=10-20 uM)
